Values of other authors as cited in patent publication US10011570B2, “Nucleic acid binding dyes with improved safety” (Biotium, Inc., priority 2013, dated 2018).

System: cellular mutation caused by UV light or other known mutagens
Details: cited from earlier work

Structure (SMILES): CCCN(CCCN(C)C)c1cc(/C=C2/Sc3ccccc3N2C)c2ccccc2[n+]1-c1ccccc1 [SYBR Green]
- effect on cellular mutation caused by UV light or other known mutagens: can worsen cellular mutation
- power in worsening mutation relative to ethidium bromide: ~100 times
